≈ marks a conversion by molar mass, not a printed value. Like-named read-outs stand apart in the source and are kept apart here.
Legend:
M. tuberculosis H37Rv [1] = assay: MIC by resazurin reduction microplate assay (REMA); assay type: cell-based, Mycobacterium tuberculosis
C. diphtheriae DSM 44123 = assay: MIC99 by REMA; assay type: cell-based, Corynebacterium diphtheriae
C. glutamicum ATCC 13032 = assay: MIC99 by REMA; assay type: cell-based, Corynebacterium glutamicum
M. abscessus 2005-0524 = assay: MIC99 by REMA; assay type: cell-based
M. avium ATCC 15769 = assay: MIC99 by REMA; assay type: cell-based
M. bolletii 1999-0888 = assay: MIC99 by REMA; assay type: cell-based
M. bovis BCG Pasteur = assay: microbe, parasite or virus in culture; assay type: cell-based, Mycobacterium bovis BCG
M. bovis BCG BN2 = assay type: cell-based, Mycobacterium bovis BCG
M. marinum Strain M [2] = assay: MIC99 by REMA; assay type: cell-based, Mycobacterium marinum
M. massiliense 2005-0484 = assay: MIC99 by REMA; assay type: cell-based
M. smegmatis mc^2155 = assay: MIC99 by REMA; assay type: cell-based, Mycobacterium smegmatis
M. smegmatis GM22 = assay: microbe, parasite or virus in culture; assay type: cell-based; settings: for MIC99: M. smegmatis GM22, overproduces NfnB nitroreductase
M. tuberculosis MDR_CHUV = assay: MIC99 by REMA; assay type: cell-based, Mycobacterium tuberculosis
M. vaccae ATCC 15483 = assay: MIC99 by REMA; assay type: cell-based
M. tuberculosis H37Rv [3] = assay: Drug susceptibility testing on solid Löwenstein-Jensen medium; assay type: cell-based; settings: Mycobacterium tuberculosis, H37RV
[4] = tested on: M. tuberculosis clinical isolate 4328; assay: as above; assay type: cell-based; settings: Mycobacterium tuberculosis
[5] = tested on: M. tuberculosis clinical isolate 6341; assay: as above; assay type: cell-based; settings: Mycobacterium tuberculosis
[6] = tested on: M. tuberculosis clinical isolate 6374; assay: as above; assay type: cell-based; settings: Mycobacterium tuberculosis
[7] = tested on: M. tuberculosis clinical isolate 5055; assay: as above; assay type: cell-based; settings: Mycobacterium tuberculosis
[8] = tested on: M. tuberculosis clinical isolate 5253; assay: as above; assay type: cell-based; settings: Mycobacterium tuberculosis
[9] = tested on: M. tuberculosis clinical isolate 6412; assay: as above; assay type: cell-based; settings: Mycobacterium tuberculosis
[10] = tested on: M. tuberculosis clinical isolate 6448; assay: as above; assay type: cell-based; settings: Mycobacterium tuberculosis
[11] = tested on: M. tuberculosis clinical isolate 6418; assay: as above; assay type: cell-based; settings: Mycobacterium tuberculosis
[12] = tested on: M. tuberculosis clinical isolate 7384; assay: as above; assay type: cell-based; settings: Mycobacterium tuberculosis
[13] = biological target: T1, purified recombinant M. smegmatis NfnB (Mycolicibacterium smegmatis, UniProt A0R6D0); assay: NfnB-mediated nitroreduction followed by LC-MS; assay type: biochemical
T1 construct: made in house

M. tuberculosis DprE1 = M. tuberculosis DprE1 (Mycobacterium tuberculosis, UniProt P9WJF1); assay: DprE1 inhibition, two step peroxidase-coupled assay with Amplex Red; assay type: biochemical
M. marinum strain M [14] = assay type: in vivo, zebrafish (Danio rerio); settings: zebrafish, in vivo
zebrafish embryos = assay type: in vivo, zebrafish (Danio rerio); settings: zebrafish, in vivo
Protocol: On examination of infected zebrafish embryos treated with BTZ043 it was observed that the compound affected embryo development (Fig 6A–G) especially at concentrations above 25 nM. […] These defects were also observed when uninfected embryos were exposed to BTZ043.
Figure 6 Effect of BTZ043 on M. marinum infected zebrafish embryo development. A–D M. marinum infected zebrafish embryos were treated with BTZ043 for 5 days at the concentrations indicated and photographed using a Leica DFC420C camera. The M strain was used for infection. E–F Images of the notochord from untreated and treated zebrafish, arrows indicate developmental abnormalities. G Analysis of zebrafish embryos displaying developmental abnormalities treated with BTZ043 (BTZ) or PBTZ169 (PBTZ) at the concentrations indicated.

M. tuberculosis H37Rv [15] = assay type: in vivo, BALB/c mice; settings: mouse, in vivo
in vivo = settings: mouse, in vivo
Protocol: Table S5. Principal pharmacokinetic properties1
1 See Figure S5 for primary data.
Compound levels were measured in serum from individual female mice (3/time point) that had received a single dose of 25 mg/kg. Maximum concentration (Cmax); area under the curve (AUC); apparent clearance.
Comparative pharmacokinetic analysis. After receiving a single dose
(25 mg/kg) of PBTZ169 or BTZ043 by gavage, groups of three female mice were sacrificed at the times indicated, blood was obtained by cardiac puncture and the drug levels in serum determined by LC-MS/MS technique (limit of quantification 10 μg/L).

M. tuberculosis H37Rv [16] = assay: In vitro combination studies, REMA checkerboard; assay type: cell-based
[17] = mouse
[18] = human
in vitro [19] = settings: mouse, microsomes
in vitro [20] = settings: human, microsomes
M. marinum strain E11 = assay: Zebrafish embryo infection model, M. marinum strain E11; settings: 25 nM for 5, 4 or 3 days
Protocol: The number of colony forming units (CFU) per embryo was determined and compared to the level of fluorescence.
Zebrafish embryos were infected with either M. marinum strain M (A, B) or E11 (C, D). […] The bacterial burden was assessed by fluorescence microscopy and customized software to quantify the number of fluorescent pixels (A and C), and by enumeration of the CFU in lysed embryos (B and D), immediately after imaging was performed. In B and D, each data point represents the mean number of CFU per embryo of 3 embryo extracts plated, the bars indicate means and s.e.m. after log transformation. […]
Volumes of 1 nl of bacterial suspension, containing 50-200 CFU were injected into the caudal vein of embryonic zebrafish at approximately 28 h post fertilization. At 5 days post infection, embryos were monitored using fluorescence microscopy (Leica MZ16FA). Brightfield and fluorescent images were generated with a Leica DFC420C camera and subsequently fluorescent images were analyzed with customized software to quantify infection levels.
Twelve infected embryos were incubated at 28°C in petri dishes of 4 cm diameter containing 4 ml sterilized egg water (60 μg/ml instant ocean sea salts) with 0.003% 1-phenyl-2-thiourea (Sigma) to prevent melanization. All drug treatment experiments were performed in egg water containing 1% DMSO and analyzed at 5 days post infection (dpi). […]

M. smegmatis MN47 = assay type: cell-based; settings: M. smegmatis MN47, DprE1 Cys394Gly
M. smegmatis MN84 = assay type: cell-based; settings: M. smegmatis MN84, DprE1 Cys394Ser
[21] = Mycobacterium tuberculosis, H37RV

M. tuberculosis DprE1, sequence (P9WJF1 whole entry, looked up): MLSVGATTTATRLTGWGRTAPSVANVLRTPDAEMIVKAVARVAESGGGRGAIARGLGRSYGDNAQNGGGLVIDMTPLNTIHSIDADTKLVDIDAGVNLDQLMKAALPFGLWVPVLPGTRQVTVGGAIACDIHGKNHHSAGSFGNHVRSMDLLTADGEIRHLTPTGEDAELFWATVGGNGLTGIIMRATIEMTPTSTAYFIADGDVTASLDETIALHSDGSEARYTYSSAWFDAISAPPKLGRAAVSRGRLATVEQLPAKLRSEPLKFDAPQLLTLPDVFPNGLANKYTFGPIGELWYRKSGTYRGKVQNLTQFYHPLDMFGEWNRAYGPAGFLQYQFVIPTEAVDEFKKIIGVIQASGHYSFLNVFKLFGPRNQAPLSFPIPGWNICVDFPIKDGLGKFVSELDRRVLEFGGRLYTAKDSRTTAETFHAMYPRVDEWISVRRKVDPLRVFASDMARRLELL
T1 sequence (A0R6D0 whole entry): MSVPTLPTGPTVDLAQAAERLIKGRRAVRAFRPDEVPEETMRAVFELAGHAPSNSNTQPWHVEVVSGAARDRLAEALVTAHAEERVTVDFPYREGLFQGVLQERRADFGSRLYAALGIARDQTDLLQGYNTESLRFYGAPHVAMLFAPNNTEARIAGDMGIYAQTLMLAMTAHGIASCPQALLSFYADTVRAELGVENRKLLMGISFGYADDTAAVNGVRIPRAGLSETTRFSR

**Q.** For O=c1nc(N2CCN(CC3CCCCC3)CC2)sc2c([N+](=O)[O-])cc(C(F)(F)F)cc12 [PBTZ169], which MIC (M. tuberculosis H37Rv [1]; [21]) is on record?
**A.** ≤ 0.19 ng/mL

**Q.** What about the MIC99 (M. tuberculosis H37Rv [1]; [21]) of the same molecule?
**A.** 0.3 ng/mL (≈ 0.000657 µM)

**Q.** What about the MIC (M. tuberculosis H37Rv [1]; Mycobacterium tuberculosis, H37RV, read-out: MIC M. tuberculosis) of the same molecule?
**A.** ≤ 0.19 ng/mL

**Q.** And the MIC99 (C. diphtheriae DSM 44123; Corynebacterium diphtheriae, DSM44123)?
**A.** 3 ng/mL (≈ 0.00657 µM)

**Q.** What about the MIC99 (C. glutamicum ATCC 13032; Corynebacterium glutamicum, ATCC13032) of the same molecule?
**A.** 0.013 µg/mL (≈ 0.0285 µM)

**Q.** And the MIC99 (M. abscessus 2005-0524; Mycobacteroides abscessus, 20050524)?
**A.** > 100 µg/mL

**Q.** What about the MIC99 (M. avium ATCC 15769; Mycobacterium avium, ATCC15769) of the same molecule?
**A.** > 100 µg/mL

**Q.** What about the MIC99 (M. bolletii 1999-0888; Mycobacteroides abscessus, 19990888) of the same molecule?
**A.** > 100 µg/mL

**Q.** What about the MIC99 (M. bovis BCG Pasteur; Mycobacterium tuberculosis variant bovis BCG, BCG) of the same molecule?
**A.** 0.6 ng/mL (≈ 0.00131 µM)

**Q.** What about the MIC99 (M. bovis BCG BN2) of the same molecule?
**A.** >100 µg/mL

**Q.** What about the “fold increased resistance conferred by the Cys387Ser mutation in DprE1” value (M. bovis BCG BN2) of the same molecule?
**A.** > 10 000 fold

**Q.** What about the MIC99 (M. marinum Strain M [2]; Mycobacterium marinum) of the same molecule?
**A.** 0.3 ng/mL (≈ 0.000657 µM)

**Q.** What about the MIC99 (M. massiliense 2005-0484; Mycobacteroides abscessus, 20050484) of the same molecule?
**A.** > 100 µg/mL

**Q.** And the MIC99 (M. smegmatis mc^2155; Mycolicibacterium smegmatis, MC^2155)?
**A.** 0.7 ng/mL (≈ 0.00153 µM)

**Q.** What about the MIC (M. smegmatis GM22; Mycolicibacterium smegmatis, GM22, read-out: MIC for GM22) of the same molecule?
**A.** 5 ng/mL (≈ 0.011 µM)

**Q.** What about the MIC99 (M. smegmatis GM22; Mycolicibacterium smegmatis, read-out: MIC99) of the same molecule?
**A.** 3 ng/mL (≈ 0.00657 µM)

**Q.** And the MIC99 (M. tuberculosis MDR_CHUV; Mycobacterium tuberculosis)?
**A.** 0.4 ng/mL (≈ 0.000876 µM)

**Q.** What about the MIC99 (M. vaccae ATCC 15483; Mycolicibacterium vaccae, ATCC15483) of the same molecule?
**A.** > 100 µg/mL

**Q.** What about the MIC (M. tuberculosis H37Rv [3]) of the same molecule?
**A.** 0.031 µg/mL (≈ 0.0679 µM)

**Q.** And the MIC [4]?
**A.** 0.063 µg/mL (≈ 0.138 µM)

**Q.** And the MIC [5]?
**A.** 0.031 µg/mL (≈ 0.0679 µM)

**Q.** What about the MIC [6] of the same molecule?
**A.** 0.063 µg/mL (≈ 0.138 µM)

**Q.** And the MIC [7]?
**A.** 0.063 µg/mL (≈ 0.138 µM)

**Q.** What about the MIC [8] of the same molecule?
**A.** 0.063 µg/mL (≈ 0.138 µM)

**Q.** What about the MIC [9] of the same molecule?
**A.** 0.031 µg/mL (≈ 0.0679 µM)

**Q.** And the MIC [10]?
**A.** 0.063 µg/mL (≈ 0.138 µM)

**Q.** And the MIC [11]?
**A.** 0.063 µg/mL (≈ 0.138 µM)

**Q.** And the MIC [12]?
**A.** 0.063 µg/mL (≈ 0.138 µM)

**Q.** What about the “NfnB-mediated reduction, species found by LC-MS” value [13] of the same molecule?
**A.** the major species found in the LC-MS analysis was the original nitro form

**Q.** And the “concentration giving full inhibition of DprE1” value (M. tuberculosis DprE1)?
**A.** 5 µM

**Q.** What about the “bacterial burden in infected zebrafish embryos (fluorescence)” value (M. marinum strain M [14]) of the same molecule?
**A.** almost no bacteria were present

**Q.** And the “decrease in number of CFU per embryo” value (M. marinum strain M [14])?
**A.** about 3 log units

**Q.** And the “effect on the infection in zebrafish embryos” value (M. marinum strain M [14])?
**A.** no significant effect

**Q.** What about the “developmental defects in zebrafish embryos (in words)” value (zebrafish embryos) of the same molecule?
**A.** no developmental defects were seen

**Q.** What about the “activity in dose escalation study (in words)” value (M. tuberculosis H37Rv [15]) of the same molecule?
**A.** active at all the concentrations tested

**Q.** What about the “reduction of CFU in the lungs in comparison to BTZ043 at the same dose” value (M. tuberculosis H37Rv [15]) of the same molecule?
**A.** > 0.5 log

**Q.** And the “reduction of bacterial burden in the spleens, fold more than BTZ043” value (M. tuberculosis H37Rv [15])?
**A.** 10 fold

**Q.** What about the “time the serum level remains well above MIC” value (in vivo; female) of the same molecule?
**A.** > 21 h

**Q.** What about the Cmax (in vivo; female, po, 25 mg/kg) of the same molecule?
**A.** 1850 ng/mL

**Q.** And the half-life (in vivo; female, po, 25 mg/kg)?
**A.** 111 min

**Q.** And the k el (in vivo; female, po, 25 mg/kg)?
**A.** 0.000104 s⁻¹

**Q.** And the AUC (in vivo; po, 25 mg/kg)?
**A.** 193487 µg·min/L

**Q.** And the “ΣFIC (sum of the fractional inhibitory concentrations)” value (M. tuberculosis H37Rv [16])?
**A.** 0.5

**Q.** And the selectivity index (HepG2 human cell line; HepG2 cytotoxicity relative to MIC)?
**A.** > 10 000

**Q.** And the TD99 (HepG2 human cell line; human)?
**A.** > 200 µg/mL

**Q.** What about the “clearance on incubation with microsomes (in words)” value [17] of the same molecule?
**A.** medium clearance values

**Q.** And the “clearance on incubation with microsomes (in words)” value [18]?
**A.** medium clearance values

**Q.** And the microsomal CLint (in vitro [19])?
**A.** 24.3 µL/min/mg

**Q.** What about the microsomal CLint (in vitro [20]) of the same molecule?
**A.** 24.8 µL/min/mg

**Q.** And the “decrease in number of CFU per embryo” value (M. marinum strain E11)?
**A.** ~2 log units

**Q.** Which results are given for moxifloxicin [MXF]?
**A.** MIC99 (M. tuberculosis H37Rv [1]): 30 ng/mL; MIC99 (C. diphtheriae DSM 44123): 20 ng/mL; MIC99 (C. glutamicum ATCC 13032): 0.31 µg/mL; MIC99 (M. abscessus 2005-0524): 0.78 µg/mL; MIC99 (M. avium ATCC 15769): 0.47 µg/mL; MIC99 (M. bolletii 1999-0888): 0.94 µg/mL; MIC99 (M. bovis BCG Pasteur): 20 ng/mL; MIC99 (M. bovis BCG BN2): 0.03 µg/mL; MIC99 (M. marinum Strain M [2]): 100 ng/mL; MIC99 (M. massiliense 2005-0484): 0.96 µg/mL; MIC99 (M. smegmatis mc^2155): 60 ng/mL; MIC99 (M. smegmatis GM22): 60 ng/mL; MIC99 (M. smegmatis MN47): 0.06 µg/mL; MIC99 (M. smegmatis MN84): 0.06 µg/mL; MIC99 (M. tuberculosis MDR_CHUV): 30 ng/mL; MIC99 (M. vaccae ATCC 15483): 0.63 µg/mL

— publication PMC3958311 (EMBO Molecular Medicine, 2014)
